PMC9482650, “Quantitative fragmentomics allow affinity mapping of interactomes” (Nature Communications, 2022)
Where two headings read alike, the source gives them in different places. Ends that are not written are not given here.

Legend:
[1] = target: SNX27 PDZ (Homo sapiens, UniProt Q96L92); assay: Holdup assay; assay type: binding
[2] = target: SCRIB_1 PDZ (Homo sapiens, UniProt Q14160); assay: Holdup assay; assay type: binding
[3] = target: DLG1_1 PDZ (Homo sapiens, UniProt Q12959); assay: Holdup assay; assay type: binding
[4] = target: T1, TX1BP3 PDZ (Homo sapiens, UniProt O14907); assay: Holdup assay; assay type: binding
T1 sequence (O14907 15-112 limits assumed): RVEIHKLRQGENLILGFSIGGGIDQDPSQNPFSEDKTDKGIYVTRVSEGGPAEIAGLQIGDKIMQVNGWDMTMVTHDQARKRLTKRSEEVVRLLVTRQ

[5] = target: DLG1_2 PDZ (Homo sapiens, UniProt Q12959); assay: Holdup assay; assay type: binding
[6] = tested on: HEK293T cells; assay: Label-free MS proteome of stable cell lines expressing HPV16 E6 or E6ΔPBM; assay type: cell-based, human; conditions: protein level
Description: HEK293T and HeLa cells were authenticated and found 100% identity to ATCC cat. CRL-3216 and ATCC cat. CCL-2, respectively. Jurkat and HaCat cell lines were not authenticated (original source: ECACC and Deutsches Krebsforschungszentrum DKFZ, respectively). HeLa cells were grown in DMEM (1 g/L glucose, Gibco) medium completed with 5% FCS and 40 μg/mL gentamicin, diluted every 3rd/4th day 1/10. HaCat cells were grown in DMEM (1 g/L glucose, Gibco) medium completed with 10% FCS and 40 μg/mL gentamicin, diluted every 3rd/4th day 1/4. Jurkat cells were grown in RPMI (Gibco) medium completed with 10% FCS and 40 μg/mL gentamicin, diluted every 3rd/4th day 1/12. All cells were kept at 37 °C and 5% CO2. For proteomics analyses cells were seeded on T-175 flasks. After they reached confluency, adherent cells were washed with PBS once and collected by scraping with ice-cold lysis buffer (Hepes-KOH pH 7.5 50 mM, NaCl 150 mM, Triton X-100 1%, complete EDTA-free protease inhibitor cocktail 1×, EDTA 2 mM, TCEP 5 mM, glycerol 10%). Jurkat cells were collected by 1000 g × centrifugation, washed once with PBS, then collected by 1000 g × 5 min centrifugation again and lysed in ice-cold lysis buffer. Lysates were sonicated 4 × 20 s with 1 s long pulses on ice, then incubated rotating at 4 °C for 30 min. Lysates were centrifuged at 12,000 rpm 4 °C for 20 min and supernatant was kept for further analysis. Concentration determination was carried out by standard Bradford method (Bio-Rad Protein Assay Dye Reagent #5000006) using BSA (MP BIomedicals #160069) as control on a Bio-Rad SmartSpec 3000 spectrophotometer instrument.
(§1) The samples were precipitated with TCA 20% overnight at 4 °C and centrifuged at 14,000 rpm for 10 min at 4 °C. The protein pellets were washed twice with 1 mL cold acetone and air dried. The protein extracts were solubilized in urea 8 M, reduced with 5 mM TCEP for 30 min, and alkylated with 10 mM iodoacetamide for 30 min in the dark. Double digestion was performed at 37 °C with 500 ng endoproteinase Lys-C for 4 h, followed by fourfold dilution and an overnight digestion with 500 ng trypsin. Peptide mixtures were then desalted on C18 spin-column and dried on Speed-Vacuum.
(§2) Samples were analyzed using an Ultimate 3000 nano-RSLC (Thermo Scientific, San Jose California) coupled in line with a LTQ-Orbitrap ELITE mass spectrometer via a nano-electrospray ionization source (Thermo Scientific, San Jose California). Peptide mixtures were injected in 0.1% TFA on a C18 Acclaim PepMap100 trap-column (75 µm ID × 2 cm, 3 µm, 100 Å, Thermo Fisher Scientific) for 3 min at 5 µL/min with 2% ACN, 0.1% FA in H2O and then separated on a C18 Accucore nano-column (75 µm ID × 50 cm, 2.6 µm, 150 Å, Thermo Fisher Scientific) at 220 nl/min and 38 °C with a 90 min linear gradient from 5% to 30% buffer B (A: 0.1% FA in H2O/B: 99% ACN, 0.1% FA in H2O), regeneration at 5% B. The mass spectrometer was operated in positive ionization mode, in data-dependent mode with survey scans from m/z 350–1500 acquired in the Orbitrap at a resolution of 120,000 at m/z 400. The 20 most intense peaks from survey scans were selected for further fragmentation in the Linear Ion Trap with an isolation window of 2.0 Da and were fragmented by CID with normalized collision energy of 35%. (TOP20CID method) Unassigned and single charged states were excluded from fragmentation. The Ion Target Value for the survey scans (in the Orbitrap) and the MS2 mode (in the Linear Ion Trap) were set to 1E6 and 5E3 respectively and the maximum injection time was set to 100 ms for both scan modes. Dynamic exclusion was set to 20 s after one repeat count with mass width at ±10 ppm.
Proteins were identified by database searching using SequestHT (Thermo Fisher Scientific) with Proteome Discoverer 2.4 software (PD2.4, Thermo Fisher Scientific) on human FASTA database downloaded from SwissProt (reviewed, release 2020_11_27, 20304 entries, https://www.uniprot.org/). […]

[7] = target: T2, SCRIB2 PDZ (Homo sapiens, UniProt Q14160); assay: Holdup assay; assay type: binding
T2 sequence (Q14160 862-950 limits assumed): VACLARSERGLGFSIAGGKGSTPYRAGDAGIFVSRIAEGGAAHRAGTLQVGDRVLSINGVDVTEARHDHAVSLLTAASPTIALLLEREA

[8] = tested on: HaCat cell extract preys; assay: PDZ-AP-MS, biotinylated MBP-PDZ baits; assay type: binding, human; conditions: for Difference log2: enrichment of prey
Description: (§3) For PDZ-AP-MS experiments, PDZ domains were cloned as His6-AviTag-MBP-PDZ constructs. For co-expression with BirA, E. coli BL21(DE3) cells were co-transformed with His6-AviTag-MBP, or His6-AviTag-MBP-PDZ-coding and PET21a-BirA (Addgene #20857) plasmids. Simultaneously to IPTG induction, 50 µM biotin was added to the media. After cell harvesting, the lysis buffer was also supplemented with 50 µM biotin. Otherwise, expression and double affinity purification was identical as previously described in details.
(§4) For PBM-AP-MS experiments, 30 μl streptavidin resin was mixed with biotin or peptide at 50–60 μM concentration in 6–6.5 resin volume for 60 min to achieve resin saturation. For PDZ-AP-MS experiments, 30 μl streptavidin resin was mixed with biotinylated MBP or MBP-PDZ at 40-50 μM concentration in >1000× resin volume for 60 min to achieve resin saturation. After saturation, resins were washed a single time (ten resin volume, holdup buffer), and were depleted with biotin (1 mM biotin, 5–10 resin volume, 10 min). Finally, resins were washed two times. 0.5 ml 2 mg/ml cell lysate was added to the dry resin (1 mg total input) and were incubated at 4 °C for 2 h. Then, the beads were washed three times with 10 resin volume buffer containing: 50 mM TRIS pH 8.5, 150 mM NaCl, 1% TritonX-100, 10× complete EDTA-free protease inhibitor cocktail, 2 mM EDTA, 1 mM TCEP. Then, the beads were washed two times with ten resin volume buffer containing: 50 mM TRIS pH 8.5, 150 mM NaCl, 1 mM TCEP. Finally, captured protein was eluted from the resin in two steps and the eluted fractions were pooled. For each elution the beads were incubated for 30 min with three resin volume buffer containing: 20 mM TRIS pH8.5, 100 mM NaCl, 500 μM TCEP, 8 M Urea. Between each step, the beads were separated by mild centrifugation and the supernatant was removed by gentle pipetting.
as §1
as §2, with “ppm. […]” for “ppm.”

[9] = tested on: Jurkat cell extract preys; assay: PDZ-AP-MS, biotinylated MBP-PDZ baits; assay type: binding, human; conditions: for Difference log2: enrichment of prey
Description: as §3, §4, §1
as §2, with “ppm. […]” for “ppm.”

[10] = PBM motif of the named protein vs SCRIB_1 PDZ, read-out: pKd values – domain-motif, SCRIB_1 (converted)
[11] = PBM motif of the named protein vs DLG1_1 PDZ, read-out: pKd values – domain-motif, DLG1_1 (converted)
[12] = PBM motif of the named protein vs TX1BP3 PDZ, read-out: pKd values – domain-motif, TX1BP3 (converted)
[13] = PBM motif of the named protein vs DLG1_2 PDZ, read-out: pKd values – domain-motif, DLG1_2 (converted)
[14] = holdup affinity of the PBM peptide of the named protein, sheet PBMcomplexome, lower sub-table, 3.5 appears to be the floor for no detectable binding, read-out: affinity of PBM to TX1BP3 (pKd) (converted)
[15] = holdup affinity of the PBM peptide of the named protein, sheet PBMcomplexome, lower sub-table
[16] = holdup affinity of the PBM peptide of the named protein, sheet PBMcomplexome, lower sub-table, 3.5 appears to be the floor for no detectable binding, read-out: affinity of PBM to SCRIB_1 (pKd) (converted)
[17] = holdup affinity of the PBM peptide of the named protein, sheet PBMcomplexome, lower sub-table, 3.5 appears to be the floor for no detectable binding, read-out: affinity of PBM to SCRIB_2 (pKd) (converted)
[18] = holdup affinity of the PBM peptide of the named protein, sheet PBMcomplexome, lower sub-table, 3.5 appears to be the floor for no detectable binding, read-out: affinity of PBM to DLG1_2 (pKd) (converted)
[19] = holdup affinity of the PBM peptide of the named protein, sheet PBMcomplexome, lower sub-table, 3.5 appears to be the floor for no detectable binding, read-out: affinity of PBM to DLG1_1 (pKd) (converted)
[20] = bait SCRIB_1 PDZ, fold change of prey
[21] = bait SNX27 PDZ, fold change of prey

Sequence of SCRIB_1 PDZ (Q14160 728-815 limits assumed): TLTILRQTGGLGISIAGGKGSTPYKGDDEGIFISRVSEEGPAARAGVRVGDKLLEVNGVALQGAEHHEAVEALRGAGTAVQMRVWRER

## CC(C)C[C@H](NC(=O)[C@@H]1CCCN1C(=O)[C@@H]1CCCN1C(=O)[C@H](CCCCN)NC(=O)[C@H](CO)NC(=O)[C@H](CC(=O)O)NC(=O)CCCCCNC(=O)CCCC[C@@H]1SC[C@@H]2NC(=O)N[C@@H]21)C(=O)N1CCC[C@H]1C(=O)N1CCC[C@H]1C(=O)N[C@@H](CC(=O)O)C(=O)N[C@@H](CCC(=O)O)C(=O)N[C@@H](Cc1c[nH]c2ccccc12)C(=O)N[C@H](C(=O)O)C(C)C [MERS E]
[1]
  Kd: 27.5 µM

## DLDEEEDTHL [PODXL]
[1]
  Kd: 7.08 µM
[2]; [10]
  Kd: 8.32 µM
[3]; [11]
  Kd: 234 µM

## DPRNTQTSQI [ABRAXAS2]
[4]; [12]
  Kd: 195 µM
[1]
  Kd: 91.2 µM
[2]; [10]
  Kd: 95.5 µM
[5]; [13]
  Kd: 145 µM
[3]; [11]
  Kd: 324 µM

## DRIQSCLSDA [SBF1]
[4]; [14]
  Kd: 91.2 µM

## EALLQMESVA [CAVIN3]
[1]; [15]
  Kd: 74.1 µM
[2]; [16]
  Kd: 275 µM

## ELSATVTTDC [TRIP6]
[4]; [12]
  Kd: 331 µM
[1]
  Kd: 26.9 µM
[2]; [10]
  Kd: 33.1 µM
[5]; [13]
  Kd: 214 µM

## ESYT2
[6]; E6 cell line vs control
  Difference log2 E6/Ctrl: -0.8847
  Ratio E6/Ctrl: 0.5416
[6]; dPBM cell line vs E6 cell line
  Difference log2 dPBM/E6: -0.2136
  Ratio dPBM/E6: 0.8624
[6]; dPBM cell line vs control
  Difference log2 dPBM/Ctrl: -1.098
  Ratio dPBM/Ctrl: 0.4671

## GGPKEEESPV [SLC16A1]
[1]
  Kd: 5.37 µM
[2]; [10]
  Kd: 6.61 µM
[5]; [13]
  Kd: 275 µM

## HSATSVHTSV [MTMR1]
[4]; [14]
  Kd: 158 µM
[1]; [15]
  Kd: 110 µM
[2]; [16]
  Kd: 162 µM
[7]; [17]
  Kd: 112 µM
[5]; [18]
  Kd: 12.6 µM
[3]; [19]
  Kd: 55 µM

## NLQEHSTTSV [RSBN1]
[4]; [14]
  Kd: 107 µM
[1]; [15]
  Kd: 3.31 µM
[2]; [16]
  Kd: 263 µM
[5]; [18]
  Kd: 102 µM
[3]; [19]
  Kd: 316 µM

## PKMKLNETSF [SHKBP1]
[1]
  Kd: 2.88 µM
[2]; [10]
  Kd: 49 µM

## SPLHSLETSL [ATP2B1]
[4]; [12]
  Kd: 35.5 µM
[1]
  Kd: 3.31 µM
[2]; [10]
  Kd: 4.37 µM
[7]; PBM motif of the named protein vs SCRIB_2 PDZ, read-out: pKd values – domain-motif, SCRIB_2 (converted)
  Kd: 53.7 µM
[5]; [13]
  Kd: 21.4 µM
[3]; [11]
  Kd: 75.9 µM

## TJP1
[8]; bait DLG1_1 PDZ vs MBP
  Difference log2: 11.6713
[8]; bait DLG1_1 PDZ, fold change of prey
  Ratio DLG1_1/MBP: 3261.52
[8]; bait SCRIB_1 PDZ vs MBP
  Difference log2: 5.351
[8]; [20]
  Ratio SCRIB_1/MBP: 40.8237
[8]; bait SNX27 PDZ vs MBP
  Difference log2: 10.4278
[8]; [21]
  Ratio SNX27/MBP: 1377.49

## VIM
[9]; bait SCRIB_1 PDZ vs MBP
  Difference log2: 7.128
[9]; [20]
  Ratio SCRIB_1/MBP: 139.918
[9]; bait SNX27 PDZ vs MBP
  Difference log2: 6.235
[9]; [21]
  Ratio SNX27/MBP: 75.3373
[9]; bait TX1BP3 PDZ vs MBP
  Difference log2: 7.255
[9]; bait TX1BP3 PDZ, fold change of prey
  Ratio TX1BP3/MBP: 152.718

## YLEPVLSSEL [ATP2A2]
[4]; [14]
  Kd: 115 µM
[1]; [15]
  Kd: 75.9 µM
[2]; [16]
  Kd: 41.7 µM
[7]; [17]
  Kd: 275 µM
